{"source": "patent US20170239351A1", "about": "“Therapeutic Combinations of a BTK Inhibitor, a PI3K Inhibitor, a JAK-2 Inhibitor, a PD-1 Inhibitor, and/or a PD-L1 Inhibitor” (Acerta Pharma B.V., priority 2014, published 2017)", "key": {"[1]": {"test_system": "Raji cells", "assay": "Antibody-dependent NK cell-mediated cytotoxicity, chromium release assay, Raji cells", "assay_type": "cell-based", "settings": "1 μM, rituximab, effector:target 25:1, 4 hours"}, "[2]": {"test_system": "T helper 17 (Th17) cells", "assay": "Effect on T helper 17 (Th17) cells", "assay_type": "cell-based"}, "[3]": {"test_system": "regulatory T cell (Treg) development", "assay": "Regulatory T cell (Treg) development", "assay_type": "cell-based"}, "[4]": {"test_system": "CD8^+ T cell", "assay": "CD8+ T cell viability", "assay_type": "cell-based"}, "[5]": {"test_system": "CD8^+ T cell function", "assay": "Cytotoxicity assay for CD8+ T cell function", "assay_type": "cell-based", "settings": "relative to vehicle"}, "[6]": {"test_system": "CD8^+ T cell function", "assay": "IFN-γ level measurements for CD8+ T cell function", "assay_type": "cell-based", "settings": "relative to vehicle"}, "[7]": {"test_system": "human platelet-mediated thrombosis", "set-up": "species or system VWF HA1 mice (human platelets)", "settings": "in vivo", "experimental": "[…]. Injury to the vessel wall of arterioles ([…] diameter) was performed using a pulsed nitrogen dye laser (440 nm, Photonic Instruments) applied through a 20× water-immersion Olympus objective (LUMPlanF1, 0.5 numerical aperature (NA)) of a Zeiss Axiotech vario microscope. Human platelet and wall interactions were visualized by fluorescence microscopy using a system equipped with a Yokogawa CSU-22 spinning disk confocal scanner, iXON EM camera, and 488 nm and 561 nm laser lines to detect BCECF-labeled and rhodamine-labeled platelets, respectively (Revolution XD, Andor Technology). The extent of thrombus formation was assessed for 2 minutes after injury and the area (μm^2) of coverage determined (Image IQ, Andor Technology).\n. The BTK inhibitor-treated human platelets were fluorescently labeled and infused continuously through a catheter inserted into the femoral artery. Their behavior in response to laser-induced vascular injury was monitored in real time using two-channel confocal intravital microscopy (Furie and Furie, J. Clin. Invest. 2005, 115(12), 2255-62). Upon induction of arteriole injury untreated platelets rapidly formed thrombi with an average thrombus size of […] (mean±s.e.m.), as shown in FIG. 124 and FIG. 125. […]. […]. […]"}, "[8]": {"test_system": "human platelets", "assay": "GPVI (convulxin-induced) platelet aggregation", "assay_type": "cell-based", "experimental": "GPVI platelet aggregation was measured for Formula (XVIII) and Formula (XX-A) (ibrutinib). Blood was obtained from untreated humans, and platelets were purified from […] by centrifugation. Cells were resuspended to a final concentration of 350,000/μL in buffer containing 145 mmol/L NaCl, 10 mmol/L HEPES, 0.5 mmol/L Na2HPO4, 5 mmol/L KCl, 2 mmol/L MgCl2, 1 mmol/L CaCl2, and 0.1% glucose, at pH 7.4. Stock solutions of Convulxin (CVX) GPVI were prepared on the day of experimentation and added to platelet suspensions 5 minutes (37° C., 1200 rpm) before the induction of aggregation. Aggregation was assessed with a Chronolog Lumi-Aggregometer (model 540 VS; Chronolog, Havertown, Pa.) and permitted to proceed for 6 minutes after the addition of agonist. The results are reported as maximum percent change in light transmittance from baseline with platelet buffer used as a reference.\nIn FIG. 129, the results of CVX-induced (250 ng/mL) human platelet aggregation results before and 15 minutes after administration of the BTK inhibitors to 6 healthy individuals are shown."}, "[9]": {"test_system": "NK cells", "assay": "Antibody-stimulated NK cell degranulation (CD107a), flow cytometry", "assay_type": "cell-based, human", "settings": "DHL-4 target cells"}, "[10]": {"test_system": "Raji cells", "assay": "Rituximab ADCC assay (51Cr release), healthy donor NK cells", "assay_type": "cell-based, human", "settings": "1 μM"}, "[11]": {"test_system": "CD4^+ T cells", "assay": "Th17 and Treg development from CD4+ T cells", "assay_type": "cell-based", "experimental": "Enriched CD4^+ T cells are plated on 24-well culture dishes that have been precoated 2 hr with 250 μL anti-TCRβ (0.5 μg/mL) plus anti-CD28 (5 μg/mL) at 37° C. in PBS. The cells are then supplemented with media containing BTK inhibitors along with the skewing cytokines as indicated in the following. The Th17 and Treg cultures are grown for 4 days before analysis. The cells are maintained for an additional 3 days with skewing cytokines (Th17; 20 ng/mL IL-6, 0.5 ng/mL TGF-β, 5 μg/mL IL-4, 5 μg/mL IFN-γ and Treg; 0.5 ng/mL TGF-β, 5 μg/mL IL-4, 5 μg/mL IFN-γ) and are supplemented with IL2 as a growth factor."}, "[12]": {"test_system": "CD8^+ T cells", "assay": "CD8+ T cell viability (LIVE/DEAD staining, 4 days)", "assay_type": "cell-based", "experimental": "Total T cells were plated on anti-TCR and anti-CD28 coated wells in the presence of both BTK inhibitors. Neutral culture conditions were used that will not polarize T cells to a helper lineage. The cells are grown for 4 days and are then stained with anti-CD4, anti-CD8 and LIVE/DEAD reagent to determine if the drugs have selective effects on either the CD4^+ or CD8^+ cells. Statistical significance was calculated using the Mann Whitney T-test. […]"}, "[13]": {"test_system": "CD8^+ T cells", "assay": "Cytotoxic T cell (CTL) assay", "assay_type": "cell-based", "settings": "500 nM", "experimental": "Without being bound by any theory, CD8^+ T cells have two primary effector functions: (1) produce large amounts of IFN-γ (which activates macrophages), and (2) cytolytic activity. […] The targets were B lymphoblasts from lipopolysaccharide (LPS) treated cultures. The assay was performed by incubating different ratios of effectors:targets for 4 hours."}, "[14]": {"test_system": "B cell receptor", "assay": "Whole blood B cell receptor signalling assay (anti-IgD, CD69 on CD19+ B cells)", "assay_type": "cell-based", "settings": "2 h incubation, anti-human IgD 18 h", "experimental": "Blood from four healthy donors was incubated for 2 hours with the compounds shown over a concentration range, and then stimulated with anti-human IgD [10 μg/mL] for 18 hours. The mean fluorescent intensity (MFI) of CD69 (and CD86, data not shown) on gated CD19+ B cells was measured by flow cytometry."}, "[15]": {"test_system": "relapsed/refractory CLL", "settings": "cited from earlier work"}, "[16]": {"test_system": "KPC derived mouse pancreatic cancer cells", "assay": "Orthotopic pancreatic cancer model (KPC-derived cells)", "assay_type": "in vivo, C57BL/6 mice", "settings": "15 mg/kg oral of each drug", "experimental": "Orthotopic pancreatic cancer models in mice are clinically relevant, benefit from tissue site-specific pathology, and allow for study of metastasis. Qiu and Su, Methods Mol. Biol. 2013, 980, 215-223. A cell line derived from KrasG12D; Trp53R172H; Pdx1-Cre (KPC) mice was orthotopically implanted into the head of the pancreas after 35 passages. Based on the mice background from where the cell lines were generated, 1×10^6 cells were injected in C57BL/6 mice. Throughout the experiment, animals were provided with food and water ad libitum and subjected to a 12-h dark/light cycle. Animal studies were performed in accordance with the U.S. Public Health Service “Guidelines for the Care and Use of Laboratory Animals” (IACUC). After euthanization, pancreatic tumors were dissected out, weighed and single cell suspensions were prepared for flow cytometry analysis.\nResults of the experiments are shown in FIG. 110, which illustrates tumor growth suppression in the orthotopic pancreatic cancer model. The statistical p-value (presumption against null hypothesis) is shown for each tested single active pharmaceutical ingredient and for the combination against the vehicle.\nIn this study, KrasG12D;Trp53R172H; Pdx1-Cre (KPC) derived mouse pancreatic cancer cells (10,000 cells) were injected into the pancreases of 24 female mice. After one week of expansion, drug treatment was started in mice developing pancreatic tumors.\nSingle cell suspensions from tumor samples were prepared as follows. Mouse tumor tissue was collected and stored in PBS/0.1% soybean trypsin inhibitor prior to enzymatic dissociation. […] Following surface staining, samples were acquired on a BD Fortessa and analyzed using FlowJo (Treestar) software."}}}
{"compound": "C=CC(=O)N1CCC[C@@H](n2nc(-c3ccc(Oc4ccccc4)cc3)c3c(N)ncnc32)C1", "note": "[ibrutinib, 1-[(3R)-3-[4-amino-3-(4-phenoxyphenyl)-1H-pyrazolo[3,4-d]pyrimidin-1-yl]piperidin-1-yl]prop-2-en-1-one, reference compound]", "values": [{"measurement": "antibody-dependent NK cell-mediated cytotoxicity (percent lysis of tumor cells)", "setting": "[1]", "result": "antagonizes antibody-dependent NK cell-mediated cytotoxicity"}, {"measurement": "effect on Th17 cells", "setting": "[2]", "result": "strongly inhibits Th17 cells"}, {"measurement": "effect on Treg development", "setting": "[3]", "result": "strongly increases Treg development"}, {"measurement": "effect on CD8+ T cell viability", "setting": "[4]", "result": "strongly affects CD8^+ T cell viability at higher doses"}, {"measurement": "CD8+ T cell function as measured by % cytotoxicity", "setting": "[5]", "result": "affects CD8^+ T cell function"}, {"measurement": "CD8+ T cell function as measured by IFN-γ level", "setting": "[6]", "result": "affects CD8^+ T cell function"}, {"measurement": "effect on thrombus formation", "setting": "[7]", "result": "interfere with thrombus formation"}, {"measurement": "GPVI platelet aggregation", "setting": "[8]", "result": "significantly inhibits GPVI platelet aggregation"}, {"measurement": "inhibition of rituximab-stimulated NK cell degranulation", "setting": "[9]", "result": "~50", "unit": "%"}, {"measurement": "effect on rituximab-mediated ADCC", "setting": "[10]", "result": "strongly inhibited"}, {"measurement": "effect on Th17 and Treg development", "setting": "[11]", "result": "profound inhibition of Th17 cells and an increase in Treg development"}, {"measurement": "effect on CD8^+ T cell viability", "setting": "[12]", "result": "strong, negative effect on CD8^+ T cell viability"}, {"measurement": "CD8^+ T cell function as % cytotoxicity", "setting": "[13]", "result": "affects CD8^+ T cell function"}, {"measurement": "CD8^+ T cell function as IFN-γ levels", "setting": "[13]", "result": "significant loss of function"}]}
{"compound": "C=CC(=O)Nc1cccc(Nc2nc(Nc3ccc(OCCOC)cc3)ncc2F)c1", "note": "[CC-292]", "values": [{"measurement": "EC50", "setting": "[14]", "result": 0.121, "unit": "µM"}]}
{"compound": "obinutuzumab: type II glycoengineered CD20 monoclonal antibody", "values": [{"measurement": "Grade 3 IRRs", "setting": "[15]; Phase 1 portion (n=13)", "result": 15, "unit": "%"}, {"measurement": "patients who experienced IRRs", "setting": "[15]; Phase 1 portion (n=13)", "result": "all patients"}, {"measurement": "IRR cases developing symptoms of hypotension", "setting": "[15]; Phase 2 portion", "result": 60, "unit": "%"}, {"measurement": "hypotension cases that were Grade 3 reactions", "setting": "[15]; Phase 2 portion", "result": 25, "unit": "%"}, {"measurement": "patients who developed IRR", "setting": "[15]; Phase 2 portion", "result": 95, "unit": "%"}, {"measurement": "response rate", "setting": "[15]; monotherapy, Phase 1, previously treated CLL", "result": 62, "unit": "%"}]}
{"compound": "C[C@H](Nc1ncnc2[nH]cnc12)c1cc2ccc(F)cc2nc1-c1ccccn1", "note": "[Formula (IX), (S)—N-(1-(7-fluoro-2-(pyridin-2-yl)quinolin-3-yl)ethyl)-9H-purin-6-amine, reference compound]", "values": [{"measurement": "tumor volume versus vehicle", "setting": "[16]", "result": "statistically significant reductions in tumor volume"}]}
